Several values for one entry are separate records, joined by “and”; a condition that tells them apart may be missing. Equal values may be shown once.
System: 817829-284-R-J1-PDC complex spheroid viability
Test: Anticancer human tumor 817829-284-R-J1-PDC patient-derived colon adenocarcinoma cell line growth inhibition [POLQ]
Details: for viability, T/C: stronger effect = lower value; for IC50: curve of compound
Description: Multicellular complex tumor spheroid response to Polymerase (POL) inhibitors (novobiocin, ART-558, RP6685) in combination with a variety of drugs and investigational agents in selected tumor cell lines
The POL inhibitors (novobiocin, ART-558, and RP6685) were evaluated both individually and in combination with standard of care and investigational anticancer small molecules within a complex spheroid model of solid tumors. . Complex spheroids include a stromal component modeled by human endothelial cells (HUVEC) and fibroblasts modeled by human mesenchymal stem cells (MSCs). The concentration ranges selected for each drug and investigational agent were based upon clinically achievable concentrations if the clinical Cmax of the agent was known.
Compounds. The drugs and investigational agents: novobiocin (NSC847541), ART-558 (NSC835418), RP-6685 (NSC848927), peposertib (NSC802822), ceralasertib (NSC780249), elimusertib (NSC800525), camonsertib (NSC841442), AZD-1390 (NSC803789), olaparib (NSC753686), talazoparib (NSC767125), rucaparib (NSC756644), sotorasib (NSC818433), MRTX-1133 (NSC836407), SN-38 (NSC673596), topotecan (NSC609699), epotoside (NSC141540), doxorubicin (NSC123127), gemcitabine (NSC613327), 5-fluorouracil (NSC19893), paclitaxel (NSC125973), vemurafenib (NSC761431), MSA-2 (NSC828583), SN-011 (NSC837082), adavosertib (NSC754352), prexasertib (NSC758257), carboplatin (NSC241240) and oxaliplatin (NSC266046), were obtained from the National Cancer Institute (NCI) Developmental Therapeutics Program Chemical Repository (21). The FDA-approved anticancer drug set is available from the Developmental Therapeutics Program at https://dtp.cancer.gov/organization/dscb/obtaining/. […] The stock solutions were prepared in dimethyl sulfoxide (DMSO, Sigma-Aldrich, St. Louis, MO, cat. D2650), except for the platinum compounds which were prepared in saline (Quality Biological, Gaithersburg, MD, cat. 114-055-101), at 800-fold the tested concentration and stored at -70 degrees C prior to their use. All drugs and investigational agents were tested over a range starting from a high concentration at or near the clinical Cmax and decreasing in half-log increments. If the clinical Cmax for an agent had not been determined, the highest concentration tested was 10 microM, except for SN-38, which was tested at a high concentration of 1 microM.
Cell Culture. All cells were maintained in an incubator at 37 degrees C and 5% CO2 with 95% humidity. The PDC lines were cultured according to standard operating procedures established by the NCI PDMR (https://pdmr.cancer.gov). Table 3 of the manuscript, lists the cell lines along with the number of the three cell types plated to form the mct-spheroids and media for tumor cell growth. After thawing, all PDC lines, except 997537-175-T-J1-PDC and 415267-285-R-J2-PDC, were cultured in Matrigel-coated flasks prepared with a working solution of 1X Ham's F-12 nutrient mix, without supplementation (Thermo Fisher Scientific, cat. 11765054), 100 U/mL penicillin-streptomycin (Thermo Fisher Scientific, cat. 15140122), and 2.5% Matrigel (Corning Inc., Corning, NY, cat. 354248) for the first three passages. The two PDC lines 997537-175-T-J1-PDC and 415267-285-R-J2-PDC were cultured on uncoated flasks. The 857933-349-R-J2-PDC line was cultured in 6C/Colon 1B media containing advanced DMEM/F-12 (Thermo Fisher Scientific, cat. 12634028), 10 mM HEPES (Thermo Fisher Scientific, cat. 15630080), 1X GlutaMAX supplement (Thermo Fisher Scientific, cat. 35050061), 0.1 mg/mL primocin (InvivoGen, San Diego, CA, cat. ant-pm-2), 10% defined fetal bovine serum, heat inactivated (HyClone Laboratories Inc., Logan, UT, cat. SH30070.03HI), 50% L-WRN conditioned media (ATCC, cat. CRL-3276), 1.25 mM N-Acetyl-L-cysteine (Sigma-Aldrich, cat. A9165), 10 mM nicotinamide (Sigma-Aldrich, cat. N0636), 1X B-27 supplement (Thermo Fisher Scientific, cat. 17504044), 1X N-2 supplement (Thermo Fisher Scientific, cat. […]
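Also: spheroids exposed to compounds for 7 days.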
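For viability, T/C in this document: 100% = DMSO vehicle-treated spheroids.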

| Structure (SMILES) | viability, T/C (compound 0.0316 µM) | viability, T/C (compound 0.1 µM) | viability, T/C (compound 0.316 µM) | viability, T/C (compound 1 µM) | viability, T/C (compound 3.16 µM) | viability, T/C (compound 10 µM) | IC50 | viability, T/C (compound 0.00316 µM) | viability, T/C (compound 0.01 µM) | viability, T/C (compound 0.00949 µM) | viability, T/C (compound 0.03 µM) | viability, T/C (compound 0.0949 µM) | viability, T/C (compound 0.3 µM) | viability, T/C (compound 0.949 µM) | viability, T/C (compound 3 µM) | viability, T/C (compound 0.000316 µM) | viability, T/C (compound 0.001 µM) |
| --- | --- | --- | --- | --- | --- | --- | --- | --- | --- | --- | --- | --- | --- | --- | --- | --- | --- |
| C=CC(=O)N1CCN(c2nc(=O)n(-c3c(C)ccnc3C(C)C)c3nc(-c4c(O)cccc4F)c(F)cc23)C(C)C1 (stereo unspecified) | 70% and 89.9% and 113% | 93.6% and 105% and 95.7% | 103% and 97.2% and 99.5% | 86.7% and 94.7% and 101% | 88.8% and 90.2% and 102% | 53% and 58.3% and 44.1% | > 10000 nM and 8900 nM |  |  |  |  |  |  |  |  |  |  |
| C=CCn1c(=O)c2cnc(Nc3ccc(N4CCN(C)CC4)cc3)nc2n1-c1cccc(C(C)(C)O)n1 | 71.1% and 89.5% and 98.8% | 77.6% and 72.5% and 64.8% | 36.1% and 33.8% and 40.5% | 5.95% and 6.09% and 5.44% |  |  | 188 nM and 195 nM and 208 nM | 115% and 101% and 105% | 93.7% and 84% and 89.8% |  |  |  |  |  |  |  |  |
| CC(=O)O[C@H]1C(=O)[C@@]2(C)[C@H]([C@H](OC(=O)c3ccccc3)[C@]3(O)C[C@H](OC(=O)[C@H](O)[C@@H](NC(=O)c4ccccc4)c4ccccc4)C(C)=C1C3(C)C)[C@]1(OC(C)=O)CO[C@@H]1C[C@@H]2O |  |  |  |  |  |  | < 9.49 nM |  |  | 5.15% and 4.45% and 5.76% | 3.94% and 3.44% and 4.19% | 3.9% and 3.92% and 5.6% | 4.36% and 3.82% and 4.56% | 4.81% and 4.08% and 5.15% | 4.4% and 3.61% and 5.14% |  |  |
| CC1COCCN1c1cc(-c2ccnn2C)c2ccnc(-c3ccn[nH]3)c2n1 (stereo unspecified) | 33.8% and 33.3% and 74.6% | 11.3% and 12.5% (2×) | 7.44% and 7.37% and 5.59% | 4.37% and 3.99% and 4.03% | 3.67% and 2.87% and 3.57% | 2.72% and 2.9% and 2.76% | < 31.6 nM and 49.9 nM |  |  |  |  |  |  |  |  |  |  |
| CC1COCCN1c1cc(C2(S(C)(=N)=O)CC2)nc(-c2ccnc3[nH]ccc23)n1 (stereo unspecified) | 110% and 98% and 105% | 96.4% and 67.8% and 94.3% | 65% and 52.9% and 63.1% | 33.9% and 23.4% and 25.4% | 8.76% and 7.96% and 7.97% | 4.29% and 4.9% and 3.97% | 545 nM and 274 nM and 472 nM |  |  |  |  |  |  |  |  |  |  |
| CCCS(=O)(=O)Nc1ccc(F)c(C(=O)c2c[nH]c3ncc(-c4ccc(Cl)cc4)cc23)c1F | 89.8% and 97% and 86.7% | 87% and 72.4% and 57% | 66.1% and 86.6% and 80.9% | 72.1% and 59.4% and 61% | 55.4% and 56.3% and 59.4% | 7.53% and 9.53% and 19.9% | 3260 nM and 2920 nM and 3800 nM |  |  |  |  |  |  |  |  |  |  |
| CC[C@@]1(O)C(=O)OCc2c1cc1n(c2=O)Cc2cc3c(CN(C)C)c(O)ccc3nc2-1 | 22.9% and 25.4% and 21.7% | 15.2% and 16.8% and 14.6% |  |  |  |  | 4.5 nM and 7.57 nM and 6.12 nM | 55.4% and 82.4% and 60.1% | 39.6% and 38.4% and 46% |  |  |  |  |  |  | 89.9% and 104% and 89% | 72.3% and 95.7% and 74.1% |
| CCc1c2c(nc3ccc(O)cc13)-c1cc3c(c(=O)n1C2)COC(=O)[C@]3(O)CC | 13.7% and 12.4% and 11.8% | 7.6% and 9.24% and 7.39% | 6.4% and 5.1% and 5.47% | 3.09% and 2.77% and 3.28% |  |  | < 3.16 nM | 19.4% and 20.1% and 25.3% | 16.5% and 16.4% and 16.3% |  |  |  |  |  |  |  |  |

From PubChem BioAssay AID1963839 (Molecular Pharmacology Branch, DTP, NCI, 2024)
